Columns and labels:
HT-29 cells = assay: Growth inhibition of HT-29 cells; format: cell-based, human; settings: HT-29
[1] = test system: PKG activity in SW480 cells; assay: PKG activity in SW480 cells (phosphorylation of GST-cGB-PDE5); format: cell-based, human; settings: 48 hrs; with and without added cGMP; exisulind 200-600 μM, E4021 0.1-10 μM
Description: Two different types of PDE inhibitors were evaluated for their effects on PKG in neoplastic cells. […], exisulind, was evaluated since it is anti-neoplastic. […] No. 09/173,375 to Liu et al filed Oct. 15, 1998. To test the effect of cGMP-specific PDE inhibition on neoplasia containing the APC mutation, SW480 colon cancer cells were employed. SW 480 is known to contain the APC mutation. […] The liquid media are aspirated from the dishes (the cells will attach themselves to the dishes). […] Immediately after the cell lysis buffer is added, the lysed cells are collected by scraping the cells off each dish. The cell lysate from each dish is transferred to a microfuge tube, and the microfuge tubes are incubated at 4° C. for 15 minutes while gently agitating the microfuge tubes to allow the cells to lyse completely. After lysis is complete, the microfuge tubes are centrifuged full speed (14,000 r.p.m.) for 15 minutes. The supernatant from each microfuge tube is transferred to a fresh microfuge tube. A protein assay is then performed on the contents of each microfuge tube because the amount of total protein will be greater in the control than in the drug-treated samples, if the drug inhibits cell growth. Obviously, if the drug does work, the total protein in the drug-treated samples should be […] control. […]

cGMP PDE = cGMP PDE inhibition assay, enzyme purified from HT-29 cultured tumor cells; format: biochemical, human
Description: The mixture is incubated at 30° C. for 10 minutes with isolated PDE of this invention. Reactions are terminated, for example, by boiling the reaction mixture for 75 seconds. After cooling on ice, 100 μl of 0.5 mg/ml snake venom (O. Hannah venom available from Sigma) is added and incubated for 10 minutes at 30° C. This reaction is then terminated by the addition of an alcohol, e.g. 1 ml of 100% methanol. Assay samples are applied to 1 ml Dowex 1-X8 column; and washed with 1 ml of 100% methanol. The amount of radioactivity in the breakthrough and the wash from the column is combined and measured with a scintillation counter. The degree of phosphodiesterase inhibition is determined by calculating the amount of radioactivity in drug-treated reactions and comparing against a control sample (a reaction mixture lacking the tested compound but with drug solvent).

[2] = test system: PKG activity in HCT116 cells; assay: PKG activity in HCT116 cells; format: cell-based
From the text: To test the effect of cGMP-specific PDE inhibition on neoplasia containing the β-catenin mutation, HCT116 colon cancer cells were employed. HCT116 is known to contain the β-catenin mutation, but is known not to contain the APC mutation.
The same procedure is used to grow the HCT116 cells as is used in the SW480 procedure described above. In this experiment, only exisulind and controls were used.

PKG in SW480 cells = assay: PKG expression by Western blot in SW480 cells; format: cell-based, human; settings: 48 hours
Description: This increase in PKG protein expression was further verified by relatively quantative western blot, as described below.
SW480 cells treated with exisulind as described previously are harvested from the microfuge tubes by rinsing once with ice-cold PBS. The cells are lysed by modified RIPA buffer for 15 minutes with agitation. The cell lysate is spun down in a cold room. The supernatants are transferred to fresh microcentrifuge tubes immediately after spinning. BioRad DC Protein Assay (Temecula, Calif.) is performed to determine the protein concentrations in samples. The samples are normalized for protein concentration, as described above.
50 μg of each sample is loaded to 10% SDS gel. SDS-PAGE is performed, and the proteins then are transferred to a nitrocellulose membrane. The blotted nitrocellulose membrane are blocked in freshly prepared TBST containing 5% nonfat dry milk for one hour at room temperature with constant agitation.
A goat-anti-PKG primary antibody is diluted to the recommended concentration/dilution in fresh TBST/5% nonfat dry milk. The nitrocellulose membrane is placed in the primary antibody solution and incubated one hour at room temperature with agitation. The nitrocellulose membrane is washed three times for ten minutes each with TBST. […]

[3] = test system: polyp formation in adenomatous polyposis coli patients; assay: Human clinical study in APC patients, polyp formation; format: in vivo
Description: A human clinical study was performed in APC patients, selecting exisulind in each instance. In that study, each patient had already had his/her colon removed, except for a small section of colon adjacent the rectum (where the small intestine was attached) to preserve rectal function. However, such a patient commonly forms polyps in the small remaining colonic section, which polyps require periodic removal (e.g., by electrocautery).
That trial where exisulind was selected was a prevention trial designed to compare the cumulative number of new polyps formed over twelve months by the drug and placebo groups. Eligible patients were those who form between 9 and 44 polyps per year. Patients were fully ablated (had all polyps removed) at the start of the study, at the end of 6 months and at the end of 12 months. The study enrolled thirty-four eligible patients. […] Based on the median number of polyps produced in the first six months of the study, patients treated with exisulind developed approximately one-third the number of polyps as patients treated with placebo (median values 9 polyps/year and 26 polyps/year, respectively; p=0.013). Based on the median number of polyps produced over the entire 12 months of the study, patients treated with exisulind produced approximately half the number of polyps as patients treated with placebo (median values 18 polyps/year and 38 polyps/year, respectively; p=0.020).

[4] = test system: colon, breast, lung, prostate, kidney, and melanoma neoplasias; settings: cited from earlier work

**Q.** With `CC1=C(CC(=O)O)c2cc(F)ccc2/C1=C\c1ccc(S(C)(=O)=O)cc1` [Exisulind, 5-fluoro-2-methyl-1-(p-methylsulfonylbenzylidene)-3-indenylacetic acid] as the compound, how does the “tumor cell growth inhibition” value (HT-29 cells) read?
**A.** capable of inhibiting tumor cell growth

**Q.** And the “PKG activity relative to control” value [1]?
**A.** causes PKG activity to increase in a dose-dependent manner

**Q.** And the “selectivity cGMP PDE over PDE4” value (cGMP PDE)?
**A.** selectivity for the cGMP PDE isoenzyme forms over PDE4 isoforms

**Q.** What about the “PKG activity relative to control” value [2] of the same compound?
**A.** phosphorylated to a greater extent than the corresponding controls

**Q.** What about the “PKG level by Western blot” value (PKG in SW480 cells) of the same compound?
**A.** increase of PKG

**Q.** What about the “number of polyps relative to placebo, 12 months” value ([3]; entire 12 months) of the same compound?
**A.** approximately half

**Q.** What about the “median number of polyps, 12 months” value ([3]; entire 12 months, placebo 38 polyps/year) of the same compound?
**A.** 18 polyps/year

**Q.** And the “number of polyps relative to placebo, first six months” value ([3]; first six months)?
**A.** approximately one-third

**Q.** What about the “median number of polyps, first six months” value ([3]; first six months, placebo 26 polyps/year) of the same compound?
**A.** 9 polyps/year

**Q.** And the “decrease of rate of polyp formation” value ([3]; vs placebo)?
**A.** clinically and statistically significantly better than placebo in decreasing the rate of polyp formation

**Q.** And the “reported anti-neoplastic effects” value [4]?
**A.** anti-neoplastic effects on colon, breast, lung, prostate, kidney, and melanoma neoplasias
